Legend:
[1] = molecular target: Epidermal growth factor receptor (Homo sapiens, UniProt P00533); assay: Inhibition of recombinant human GST-tagged EGFR cytoplasmic domain (668 to 1210 residues) expressed in baculovirus by Z'-LYTE assay
[2] = molecular target: Protein kinase C theta type (Homo sapiens) (UniProt Q04759); assay: Inhibition of His tagged recombinant full length human PRKCQ expressed in baculovirus at 500 nM by Z'-LYTE assay
[3] = molecular target: Receptor tyrosine-protein kinase erbB-4 (Homo sapiens) (UniProt Q15303); assay: Inhibition of GST tagged recombinant human ERBB4 cytoplasmic domain (708 to 993 residues) expressed in baculovirus at 500 nM by Z'-LYTE assay
[4] = molecular target: Tyrosine-protein kinase Fer (Homo sapiens) (UniProt P16591); assay: Inhibition of recombinant human GST-tagged FER (541 to 822 residues) expressed in baculovirus at 500 nM by Z'-LYTE assay- tagged
Chain of Tyrosine-protein kinase Fer (Homo sapiens) (P16591 whole entry, looked up, the tested form may be a part): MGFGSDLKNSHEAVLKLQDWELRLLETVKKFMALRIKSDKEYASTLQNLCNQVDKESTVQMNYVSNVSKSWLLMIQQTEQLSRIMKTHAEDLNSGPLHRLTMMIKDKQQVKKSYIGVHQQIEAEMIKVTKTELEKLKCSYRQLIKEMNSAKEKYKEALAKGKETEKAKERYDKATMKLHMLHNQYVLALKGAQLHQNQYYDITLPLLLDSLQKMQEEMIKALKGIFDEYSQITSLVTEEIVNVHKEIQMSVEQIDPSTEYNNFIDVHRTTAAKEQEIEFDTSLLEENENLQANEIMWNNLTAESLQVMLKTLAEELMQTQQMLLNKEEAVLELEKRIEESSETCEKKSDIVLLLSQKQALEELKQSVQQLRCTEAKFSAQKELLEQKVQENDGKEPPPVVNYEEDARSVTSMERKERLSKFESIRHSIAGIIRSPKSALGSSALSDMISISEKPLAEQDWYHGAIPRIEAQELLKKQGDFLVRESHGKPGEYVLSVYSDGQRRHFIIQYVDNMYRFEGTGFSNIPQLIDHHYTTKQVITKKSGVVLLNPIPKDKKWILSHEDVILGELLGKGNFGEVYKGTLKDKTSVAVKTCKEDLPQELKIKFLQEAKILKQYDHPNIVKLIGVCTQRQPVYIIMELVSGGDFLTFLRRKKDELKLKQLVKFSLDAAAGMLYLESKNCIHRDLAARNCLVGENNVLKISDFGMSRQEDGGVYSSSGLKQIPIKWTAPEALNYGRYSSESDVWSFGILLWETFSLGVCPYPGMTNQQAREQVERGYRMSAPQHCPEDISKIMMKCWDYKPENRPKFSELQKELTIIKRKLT

[5] = molecular target: Proto-oncogene tyrosine-protein kinase receptor Ret (Homo sapiens) (UniProt P07949); assay: Inhibition of GST tagged recombinant human RET cytoplasmic domain (658 to 1114 residues) expressed in baculovirus at 500 nM by Z'-LYTE assay
[6] = molecular target: Vascular endothelial growth factor receptor 1 (Homo sapiens) (UniProt P17948); assay: Inhibition of GST tagged recombinant human FLT1 cytoplasmic domain (781 to 1338 residues) expressed in baculovirus at 500 nM by Z'-LYTE assay
[7] = molecular target: Tyrosine-protein kinase CSK (Homo sapiens) (UniProt P41240); assay: Inhibition of His tagged recombinant full length human CSK expressed in Escherichia coli at 500 nM by Z'-LYTE assay
[8] = molecular target: Aurora kinase B (Homo sapiens) (UniProt Q96GD4); assay: Inhibition of His tagged recombinant full length human Aurora B expressed in baculovirus at 500 nM by Z'-LYTE assay
Chain of Aurora kinase B (Homo sapiens) (Q96GD4 whole entry, the tested form may be a part): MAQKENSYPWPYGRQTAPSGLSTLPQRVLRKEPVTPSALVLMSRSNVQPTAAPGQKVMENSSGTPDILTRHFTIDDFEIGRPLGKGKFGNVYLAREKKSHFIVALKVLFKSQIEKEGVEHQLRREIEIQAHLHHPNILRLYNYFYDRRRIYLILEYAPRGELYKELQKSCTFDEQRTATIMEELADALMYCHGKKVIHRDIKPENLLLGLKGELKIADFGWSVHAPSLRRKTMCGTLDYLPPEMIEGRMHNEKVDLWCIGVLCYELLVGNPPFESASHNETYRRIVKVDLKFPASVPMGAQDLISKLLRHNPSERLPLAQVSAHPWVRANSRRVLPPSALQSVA

[9] = molecular target: Platelet-derived growth factor receptor alpha (Homo sapiens) (UniProt P16234); assay: Inhibition of GST tagged recombinant human PGFRA cytoplasmic domain (550 to 1089 residues) expressed in baculovirus at 500 nM by Z'-LYTE assay
Chain of Platelet-derived growth factor receptor alpha (Homo sapiens) (P16234 whole entry, the tested form may be a part): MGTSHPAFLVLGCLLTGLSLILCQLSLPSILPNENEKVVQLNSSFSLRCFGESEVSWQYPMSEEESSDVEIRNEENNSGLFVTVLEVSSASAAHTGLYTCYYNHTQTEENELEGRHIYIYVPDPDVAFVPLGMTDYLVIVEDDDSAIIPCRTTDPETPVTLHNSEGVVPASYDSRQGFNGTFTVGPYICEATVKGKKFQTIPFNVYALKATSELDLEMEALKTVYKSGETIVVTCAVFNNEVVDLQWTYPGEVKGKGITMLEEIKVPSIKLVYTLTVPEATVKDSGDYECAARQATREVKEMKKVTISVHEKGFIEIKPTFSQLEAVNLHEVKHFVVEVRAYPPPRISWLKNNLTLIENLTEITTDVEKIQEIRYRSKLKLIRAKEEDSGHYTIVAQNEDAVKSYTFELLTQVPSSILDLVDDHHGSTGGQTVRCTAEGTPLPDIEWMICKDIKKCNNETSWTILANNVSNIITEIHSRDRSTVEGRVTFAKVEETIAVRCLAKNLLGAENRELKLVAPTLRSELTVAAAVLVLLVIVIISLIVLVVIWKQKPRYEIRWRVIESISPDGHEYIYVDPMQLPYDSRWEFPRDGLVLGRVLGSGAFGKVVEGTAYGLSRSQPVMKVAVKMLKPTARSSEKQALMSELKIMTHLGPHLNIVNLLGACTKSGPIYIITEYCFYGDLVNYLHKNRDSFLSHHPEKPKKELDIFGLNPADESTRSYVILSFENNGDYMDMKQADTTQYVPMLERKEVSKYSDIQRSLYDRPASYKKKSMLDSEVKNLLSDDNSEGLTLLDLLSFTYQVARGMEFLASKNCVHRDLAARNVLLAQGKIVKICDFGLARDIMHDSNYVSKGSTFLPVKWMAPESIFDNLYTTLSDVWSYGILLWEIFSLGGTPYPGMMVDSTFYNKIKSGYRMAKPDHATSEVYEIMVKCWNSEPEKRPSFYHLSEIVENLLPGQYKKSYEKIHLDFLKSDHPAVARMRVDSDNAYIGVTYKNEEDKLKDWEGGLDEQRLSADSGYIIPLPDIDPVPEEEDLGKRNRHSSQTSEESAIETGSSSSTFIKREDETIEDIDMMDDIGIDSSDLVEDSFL

[10] = molecular target: T1, Serine/threonine-protein kinase Chk1 (Homo sapiens) (UniProt O14757); assay: Inhibition of His tagged recombinant full length human CHK1 expressed in baculovirus at 500 nM by Z'-LYTE assay
T1 sequence (whole entry): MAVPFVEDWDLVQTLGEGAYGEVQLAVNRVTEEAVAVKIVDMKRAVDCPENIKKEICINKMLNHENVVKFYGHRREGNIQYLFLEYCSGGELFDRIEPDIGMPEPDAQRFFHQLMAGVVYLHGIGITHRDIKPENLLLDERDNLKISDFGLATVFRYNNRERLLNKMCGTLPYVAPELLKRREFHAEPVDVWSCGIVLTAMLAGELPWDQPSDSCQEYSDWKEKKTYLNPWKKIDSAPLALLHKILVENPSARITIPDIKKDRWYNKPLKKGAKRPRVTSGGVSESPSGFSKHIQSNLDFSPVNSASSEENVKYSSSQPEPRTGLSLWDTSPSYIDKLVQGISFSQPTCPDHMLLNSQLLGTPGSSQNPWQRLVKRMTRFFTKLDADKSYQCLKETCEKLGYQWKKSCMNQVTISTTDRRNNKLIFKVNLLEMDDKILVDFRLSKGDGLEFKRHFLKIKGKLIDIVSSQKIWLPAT

[11] = molecular target: Vascular endothelial growth factor receptor 2 (Homo sapiens) (UniProt P35968); assay: Inhibition of His tagged recombinant human KDR (789 to 1356 residues) expressed in baculovirus at 500 nM by Z'-LYTE assay
Chain of Vascular endothelial growth factor receptor 2 (Homo sapiens) (P35968 whole entry, the tested form may be a part): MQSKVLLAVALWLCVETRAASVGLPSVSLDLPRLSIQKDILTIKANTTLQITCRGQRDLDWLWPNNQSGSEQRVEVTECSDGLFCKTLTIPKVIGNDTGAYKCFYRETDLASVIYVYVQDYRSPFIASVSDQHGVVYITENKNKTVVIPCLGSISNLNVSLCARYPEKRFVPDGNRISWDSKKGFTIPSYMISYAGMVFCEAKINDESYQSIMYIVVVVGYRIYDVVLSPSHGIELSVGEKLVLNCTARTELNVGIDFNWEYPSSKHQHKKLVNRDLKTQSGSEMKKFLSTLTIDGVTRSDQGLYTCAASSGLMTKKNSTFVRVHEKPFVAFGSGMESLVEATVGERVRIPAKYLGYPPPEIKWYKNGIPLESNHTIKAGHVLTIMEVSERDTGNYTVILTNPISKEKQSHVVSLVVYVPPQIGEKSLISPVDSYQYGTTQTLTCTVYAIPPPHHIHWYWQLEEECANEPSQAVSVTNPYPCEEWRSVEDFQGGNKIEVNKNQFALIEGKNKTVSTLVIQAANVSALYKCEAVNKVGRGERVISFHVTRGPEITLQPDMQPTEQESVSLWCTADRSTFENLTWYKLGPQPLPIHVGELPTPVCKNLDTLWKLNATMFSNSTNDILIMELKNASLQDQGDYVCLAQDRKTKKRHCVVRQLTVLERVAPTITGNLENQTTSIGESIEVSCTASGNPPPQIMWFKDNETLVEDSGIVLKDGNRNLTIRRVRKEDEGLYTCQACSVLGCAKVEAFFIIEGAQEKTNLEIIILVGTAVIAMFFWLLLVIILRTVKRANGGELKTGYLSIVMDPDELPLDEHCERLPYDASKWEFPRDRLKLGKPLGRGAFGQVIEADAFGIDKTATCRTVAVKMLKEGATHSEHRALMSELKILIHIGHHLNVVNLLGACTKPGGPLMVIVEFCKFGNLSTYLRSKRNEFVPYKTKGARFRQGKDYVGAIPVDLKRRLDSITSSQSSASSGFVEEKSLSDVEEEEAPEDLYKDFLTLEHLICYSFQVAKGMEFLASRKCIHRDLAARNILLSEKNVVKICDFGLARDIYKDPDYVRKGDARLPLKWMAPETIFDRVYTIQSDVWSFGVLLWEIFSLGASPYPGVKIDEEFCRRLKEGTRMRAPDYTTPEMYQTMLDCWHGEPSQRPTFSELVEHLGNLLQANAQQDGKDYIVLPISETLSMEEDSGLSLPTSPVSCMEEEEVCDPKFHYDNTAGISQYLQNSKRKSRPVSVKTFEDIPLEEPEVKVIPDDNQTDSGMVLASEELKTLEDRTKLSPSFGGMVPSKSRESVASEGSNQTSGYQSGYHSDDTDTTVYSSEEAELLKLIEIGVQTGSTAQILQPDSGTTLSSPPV

[12] = molecular target: T2, Ephrin type-B receptor 1 (Homo sapiens) (UniProt P54762); assay: Inhibition of GST tagged recombinant human EPHB1 cytoplasmic domain (613 to 881 residues) expressed in baculovirus at 500 nM by Z'-LYTE assay
T2 sequence (whole entry): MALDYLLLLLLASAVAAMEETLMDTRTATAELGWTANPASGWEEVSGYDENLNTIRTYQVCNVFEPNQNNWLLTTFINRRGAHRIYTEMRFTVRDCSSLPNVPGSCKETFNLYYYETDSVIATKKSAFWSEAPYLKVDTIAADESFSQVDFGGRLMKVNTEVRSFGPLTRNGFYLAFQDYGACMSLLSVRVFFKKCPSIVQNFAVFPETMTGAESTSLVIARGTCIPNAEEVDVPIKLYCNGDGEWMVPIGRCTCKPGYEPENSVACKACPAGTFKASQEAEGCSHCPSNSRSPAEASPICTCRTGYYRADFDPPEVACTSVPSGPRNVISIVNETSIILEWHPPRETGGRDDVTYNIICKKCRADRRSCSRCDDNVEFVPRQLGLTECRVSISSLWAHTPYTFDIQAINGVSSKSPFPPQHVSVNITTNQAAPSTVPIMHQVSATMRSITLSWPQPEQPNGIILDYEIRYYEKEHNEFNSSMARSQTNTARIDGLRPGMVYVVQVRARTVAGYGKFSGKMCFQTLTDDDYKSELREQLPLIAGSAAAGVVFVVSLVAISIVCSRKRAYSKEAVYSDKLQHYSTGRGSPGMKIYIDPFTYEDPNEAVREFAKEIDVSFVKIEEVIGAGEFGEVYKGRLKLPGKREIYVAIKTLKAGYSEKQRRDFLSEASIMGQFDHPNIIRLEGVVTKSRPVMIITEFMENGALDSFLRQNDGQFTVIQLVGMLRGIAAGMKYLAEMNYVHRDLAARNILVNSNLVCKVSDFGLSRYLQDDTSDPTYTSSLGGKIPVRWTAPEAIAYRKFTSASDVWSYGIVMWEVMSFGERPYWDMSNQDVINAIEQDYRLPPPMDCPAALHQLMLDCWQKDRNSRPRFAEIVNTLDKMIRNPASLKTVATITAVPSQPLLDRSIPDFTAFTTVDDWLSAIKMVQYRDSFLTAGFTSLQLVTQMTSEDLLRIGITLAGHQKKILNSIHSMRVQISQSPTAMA

[13] = molecular target: Tyrosine-protein kinase Yes (Homo sapiens) (UniProt P07947); assay: Inhibition of GST tagged recombinant full length human YES1 expressed in baculovirus at 500 nM by Z'-LYTE assay
Chain of Tyrosine-protein kinase Yes (Homo sapiens) (P07947 2-543 limits assumed): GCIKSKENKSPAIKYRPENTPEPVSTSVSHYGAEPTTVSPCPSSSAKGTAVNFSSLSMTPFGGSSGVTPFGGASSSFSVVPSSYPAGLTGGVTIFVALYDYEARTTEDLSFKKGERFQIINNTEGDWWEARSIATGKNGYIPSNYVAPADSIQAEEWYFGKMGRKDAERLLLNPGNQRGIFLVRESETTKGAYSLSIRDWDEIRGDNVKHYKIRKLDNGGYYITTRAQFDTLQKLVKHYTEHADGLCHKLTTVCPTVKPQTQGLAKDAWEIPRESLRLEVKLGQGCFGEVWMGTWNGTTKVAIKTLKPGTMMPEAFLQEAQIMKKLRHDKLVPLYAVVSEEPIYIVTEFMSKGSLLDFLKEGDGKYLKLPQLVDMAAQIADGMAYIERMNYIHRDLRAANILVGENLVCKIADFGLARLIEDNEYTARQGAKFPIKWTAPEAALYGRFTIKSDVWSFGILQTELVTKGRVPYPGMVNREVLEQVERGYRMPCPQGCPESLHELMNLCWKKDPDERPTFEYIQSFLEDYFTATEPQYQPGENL

[14] = molecular target: cAMP-dependent protein kinase catalytic subunit alpha (Homo sapiens) (UniProt P17612); assay: Inhibition of His tagged recombinant human PRKACA catalytic domain (1 to 351 residues) expressed in Escherichia coli at 500 nM by Z'-LYTE assay
[15] = molecular target: Glycogen synthase kinase-3 beta (Homo sapiens) (UniProt P49841); assay: Inhibition of His tagged recombinant full length human GSK3B expressed in baculovirus at 500 nM by Z'-LYTE assay
[16] = molecular target: Tyrosine-protein kinase SYK (Homo sapiens) (UniProt P43405); assay: Inhibition of recombinant full length human N-terminal GST-tagged SYK expressed in baculovirus at 500 nM by Z'-LYTE assay
[17] = molecular target: Tyrosine-protein kinase HCK (Homo sapiens) (UniProt P08631); assay: Inhibition of recombinant full length human N-terminal GST-tagged HCK expressed in baculovirus at 500 nM by Z'-LYTE assay
Chain of Tyrosine-protein kinase HCK (Homo sapiens) (P08631 2-526 limits assumed): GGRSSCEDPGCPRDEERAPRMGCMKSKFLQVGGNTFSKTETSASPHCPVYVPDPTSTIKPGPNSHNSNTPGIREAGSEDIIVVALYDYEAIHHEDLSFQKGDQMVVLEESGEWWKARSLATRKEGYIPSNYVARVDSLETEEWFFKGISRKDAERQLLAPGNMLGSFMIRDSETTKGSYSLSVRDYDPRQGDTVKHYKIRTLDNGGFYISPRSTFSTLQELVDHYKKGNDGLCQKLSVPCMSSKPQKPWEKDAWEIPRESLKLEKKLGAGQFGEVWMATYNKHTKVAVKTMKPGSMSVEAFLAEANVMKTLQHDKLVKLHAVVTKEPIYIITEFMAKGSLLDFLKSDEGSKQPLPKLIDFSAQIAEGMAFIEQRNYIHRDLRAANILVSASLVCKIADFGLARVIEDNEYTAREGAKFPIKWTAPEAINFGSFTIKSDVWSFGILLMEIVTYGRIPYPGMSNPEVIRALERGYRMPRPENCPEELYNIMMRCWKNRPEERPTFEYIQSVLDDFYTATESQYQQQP

Row | IC50 [1] | inhibition [2] | inhibition [3] | inhibition [4] | inhibition [5] | inhibition [6] | inhibition [7] | inhibition [8] | inhibition [9] | inhibition [10] | inhibition [11] | inhibition [12] | inhibition [13] | inhibition [14] | inhibition [15] | inhibition [16] | inhibition [17] | Structure (SMILES)
1 | 0.6 nM | 7% | 18% | 4% | 11% | 1% | 8% | 13 to 31% | 22% | -9% | 44% | 17% | 54% | 5% | 4% | 11% | 20% | C[C@@H](Nc1ncnc2oc(-c3ccc(NCCN4CCCCC4)cc3)cc12)c1ccccc1
2 | – | -4% | – | -1% | – | – | – | 20 to 44% | 5% | -7% | 70% | 11% | 29% | -10% | -8% | 14% | 18% | C#Cc1cccc(Nc2ncnc3cc(OCCOC)c(OCCOC)cc23)c1
3 | 0.4 nM | 10% | 32% | 6% | 11% | -2% | 12% | 7 to 34% | 27% | -2% | 37% | 17% | 51% | 8% | 4% | 8% | 21% | C[C@@H](Nc1ncnc2oc(-c3ccc(NCCN(C)C)cc3)cc12)c1ccccc1

Source: ChEMBL document CHEMBL3856204, “Chiral 6-aryl-furo[2,3-d]pyrimidin-4-amines as EGFR inhibitors” (Eur J Med Chem, 2016)
